Key:
[1] = system: primary cortical neurons; experiment: MTS cell viability assay; format: cell-based, murine; conditions: 24 hours
Description: (§1) Murein E14-E15 cortices were dissected and removed to Hanks Balanced Salt Solution (HBSS) The tissue was dissociated with 0.05% trypsin in HBSS for 10 min at 37° C., and then filtered through a 70 µm cell strainer. Cells were plated on poly-D-lysine (PDL)-coated plates at −3.2×10^5 cells/cm^2 in CEMEM (10% fetal bovine serum, 10% horse serum, 2 mM L-glutamine, and 1% penicillin/streptomycin) for 45 min in a 37° C. humidified tri-gas incubator (5% CO2 and 5% 02). The medium was changed to Neurobasal medium (Invitrogen, Carlsbad, Calif.) with a B27 supplement (Gibco) containing antioxidants (NB plus AO) to specifically enhance neuronal growth. After 3 days the media were half changed with NB plus AO. All treatments were done at day 5 with complete media change containing vehicle, SAHA (suberoyl anilide hydroxamic acid; Vorinostat), and test compounds at final concentrations ranging from 125 μM to 1 nM for 24 hours. The MTS non-radioactive cell viability assay employed [3-(4,5-dimethylthiazol-2-yl)-5-(3-carboxymethoxyphenyl)-2-(4-sulfophenyl)-2H-tetrazolium, inner salt with phenazine methosulfate added as an electron coupling reagent, MTS is bioreduced by cells into a formazan product that is soluble in tissue culture medium and can be measured at 490 nm. MTS was performed at 24 hours per manufacturer recommendations (Promega, G5421).

[2] = system: progranulin levels in cortical neuron cultures; experiment: Dot blot / immunoblotting of progranulin in primary cortical neuron cultures; format: cell-based, Murine; conditions: primary cortical neurons, 24 hours; for accumulation of progranulin: dot blot (FIG. 5), repeat triplicate experiments
Description: as §1, with “hours.” for “hours. The MTS non-radioactive cell viability assay employed [3-(4,5-dimethylthiazol-2-yl)-5-(3-carboxymethoxyphenyl)-2-(4-sulfophenyl)-2H-tetrazolium, inner salt with phenazine methosulfate added as an electron coupling reagent, MTS is bioreduced by cells into a formazan product that is soluble in tissue culture medium and can be measured at 490 nm. MTS was performed at 24 hours per manufacturer recommendations (Promega, G5421).”
Culture medium was collected and cells were lysed in lysis buffer containing 50 mM Tris-HCl, pH 7.5, 150 mM sodium chloride, 1% Nonidet P-40, 0.5% sodium deoxycholate, 1 mM sodium orthovanadate, 5 mM sodium fluoride, and a protease inhibitor cocktail. Sample concentrations were determined to ensure equal loading, placed in Laemmli sample buffer containing B-mercaptoethanol, and denatured at 100° C. for 5 min. Proteins were separated on a 4% stacking and 12% resolving SDS-PAGE Tris-glycine gel, transferred to polyvinylidene difluoride membrane (Millipore), and blocked in 5% instant milk or 5% bovine serum albumin in Tris-buffered saline with 0.1% Tween for 1 hour. For immunoblotting, primary antibodies were incubated overnight at 4° C. with 1/1000 tubulin (Developmental Studies Hybridoma), and 1/1000 Progranulin (ProteinTech Group). 15 μL of media was loaded from each sample. Ponceau red staining on the membrane before immunological probing was used to show equal loading to look for secreted progranulin and survival of motor neurons protein.

[3] = system: survival motor neuron (SMN) protein in cortical neurons; experiment: Immunoblotting of SMN protein in cortical neuron cultures; format: cell-based, murine; conditions: immunoblot against tubulin (FIG. 6)
Description: as §1, with “hours.” for “hours. The MTS non-radioactive cell viability assay employed [3-(4,5-dimethylthiazol-2-yl)-5-(3-carboxymethoxyphenyl)-2-(4-sulfophenyl)-2H-tetrazolium, inner salt with phenazine methosulfate added as an electron coupling reagent, MTS is bioreduced by cells into a formazan product that is soluble in tissue culture medium and can be measured at 490 nm. MTS was performed at 24 hours per manufacturer recommendations (Promega, G5421).”
Culture medium was collected and cells were lysed in lysis buffer containing 50 mM Tris-HCl, pH 7.5, 150 mM sodium chloride, 1% Nonidet P-40, 0.5% sodium deoxycholate, 1 mM sodium orthovanadate, 5 mM sodium fluoride, and a protease inhibitor cocktail. Sample concentrations were determined to ensure equal loading, placed in Laemmli sample buffer containing B-mercaptoethanol, and denatured at 100° C. for 5 min. […]

COc1ccc(Cl)cc1NC(=O)CS(=O)(=O)c1ccccc1 [Compound 3, 2-(benzenesulfonyl)-N-(5-chloro-2-methoxyphenyl)acetamide]
toxicity to the neurons [1]: apparently nontoxic | effective dose for progranulin accumulation [2]: effective in extremely low doses | accumulation of progranulin [2]: elicited accumulation of progranulin

COc1ccc(-c2c(C)nn3c(=O)cc(Cc4ccccc4)[nH]c23)cc1OC [Compound 1, 5-benzyl-3-(3,4-dimethoxyphenyl)-2-methyl-4H,7H-pyrazolo[1,5,a]pyrimidin-7-one]
toxicity to the neurons [1]: apparently nontoxic | effective dose for progranulin accumulation [2]: effective in extremely low doses | accumulation of progranulin [2]: elicited accumulation of progranulin

CCN(CC(=O)Nc1ccccc1C)S(=O)(=O)c1ccc(OC)cc1 [Compound 4, 2-(N-ethyl-4-methoxybenzenesulfonamido)-N-(2-methylphenyl) acetamide]
cellular concentration of survival motor neuron (SMN) protein [3]: dramatically increase

CC(=O)N(c1ccc(Oc2ccccc2)cc1)C1C=CS(=O)(=O)C1 (centres unmarked) [Compound 2, N-(1,1-dioxo-2,3-dihydro-1-[…]^6-thiophene-3-yl)-N-(4-phenoxyphenyl)acetamide]
cellular concentration of survival motor neuron (SMN) protein [3]: dramatically increase
